From PMC4047118, “BM-1197: A Novel and Specific Bcl-2/Bcl-xL Inhibitor Inducing Complete and Long-Lasting Tumor Regression In Vivo” (PLoS ONE, 2014)
Like-named read-outs stand apart in the source and are kept apart here.

Columns and labels:
[1] = tested on: MCL1-wild-type (WT) MEF cells; assay: cell growth inhibition, WST assay, wild-type MEF; format: cell-based; details: Mus musculus, 72 h, 3 days
Procedure: (§1) All the SCLC cell lines were purchased from American Type Culture Collection (Manassas, VA) and cultured as recommended. All these cell lines were passaged fewer than 6 months after purchase. MCL1 knockout (MCL1^−/−) MEF cells were kindly provided by Dr. David Huang (The Walter and Eliza Hall Institute of Medical Research, Melbourne, Australia). Cell growth inhibition was evaluated by means of a WST-8 assay (Dojindo, Rockville, MD) as described previously. Mitochondrial membrane potential was determined by JC-1 staining using a JC-1 Mitochondrial Membrane Potential Assay kit (Cayman). Apoptosis analysis was performed using an Annexin V/propidium iodide (PI) apoptosis detection kit (Roche Applied Sciences, Indianapolis, IN).
(§2) (B) MCL1^−/− cells were treated with 100 nM of BM-1197 for 16 h and stained with Annexin V/PI for flow cytometry. […] They are given in the order upper left, upper right, lower left, lower right.

[2] = tested on: MCL1-deficient (MCL1−/−) MEF cells; assay: cell growth inhibition, WST assay, MCL1-deficient MEF; format: cell-based, mouse
Procedure: as §1, §2

[3] = target: T1, Bcl-xL (Mus musculus, UniProt Q64373); assay: cellular thermal shift assay (CETSA), Bcl-xL; format: cell-based; details: MEF MCL1−/− cells
T1 construct: endogenous in cells; host or cells: MEF MCL1-/- cells
Procedure: (§3) Drug-target engagement was assessed using CETSA as described by Molina et al.. Briefly, cells were treated with drugs for 1 h, then harvested, washed with PBS, and resuspended in PBS. The resuspended cells were freeze-thawed 4 times. The soluble fraction (lysate) was separated from cell debris by centrifugation at 20000×g for 20 minutes at 4°C and then analyzed by Western blots.
(§4) Drug-treated cells were heated at gradient temperature from 42°C to 62°C for 3 min then freeze-thawed 4 times. The soluble fractions of the lysed cells were analyzed by immunoblotting. (B) MEF MCL1^− ^/− cells were treated with drugs at the indicated doses for 1 h before collected for CETSA.

[4] = target: T2, Bcl-2 (Mus musculus, UniProt P10417); assay: cellular thermal shift assay (CETSA), Bcl-2; format: cell-based; details: 1 µM, 1 h, MEF MCL1−/− cells
T2 construct: endogenous in cells; host or cells: MEF MCL1-/- cells
Procedure: as §3, §4

[5] = tested on: H146; assay: SCLC cell growth inhibition (WST-8), H146; format: cell-based; details: Homo sapiens
Procedure: as §1
Data are representative of two independent experiments.

[6] = tested on: H211; assay: SCLC cell growth inhibition (WST-8), H211; format: cell-based; details: Homo sapiens, NCI-H211; 96-h incubation, means ± SD (n = 3–6)
Procedure: as §1

[7] = tested on: SW1271; assay: SCLC cell growth inhibition (WST-8), SW1271; format: cell-based; details: Homo sapiens, 96-h incubation, means ± SD (n = 3–6)
Procedure: as §1

[8] = tested on: DMS53; assay: SCLC cell growth inhibition (WST-8), DMS53; format: cell-based; details: Homo sapiens, DMS-53; 96-h incubation, means ± SD (n = 3–6)
Procedure: as §1

[9] = tested on: H82; assay: SCLC cell growth inhibition (WST-8), H82; format: cell-based; details: Homo sapiens, NCI-H82; 96-h incubation, means ± SD (n = 3–6)
Procedure: as §1

[10] = tested on: DMS273; assay: SCLC cell growth inhibition (WST-8), DMS273; format: cell-based; details: Homo sapiens, DMS-273; 96-h incubation, means ± SD (n = 3–6)
Procedure: as §1

[11] = tested on: H196; assay: SCLC cell growth inhibition (WST-8), H196; format: cell-based; details: Homo sapiens, NCI-H196; 96-h incubation, means ± SD (n = 3–6)
Procedure: as §1

[12] = tested on: panel of 12 SCLC cell lines; assay: growth inhibition in a panel of 12 SCLC cell lines (summary); format: cell-based, human; details: for IC50: Homo sapiens
Procedure: as §1

[13] = tested on: H146 xenograft tumors; assay: H146 subcutaneous xenograft model; format: in vivo, SCID mice
Procedure: Tumor sizes were measured 2–3 times per week. Tumor growth inhibition was calculated by using the formula: 100% (mean volume of controls - mean volume of treated)/mean volume of controls.
Figure 10 In vivo antitumor activity of BM-1197. […] Data shown are mean ± SEM for 6–8 mice. (E & F) SCID mice bearing H146 or H1963 cells were treated with 10 mg/kg of BM-1197 IV for the indicated times. Tumor lysates were analyzed by immunoblotting.

[14] = tested on: BM-1197-insensitive SCLC cell lines; assay: MCL1 shRNA knockdown, growth inhibition by WST assay; format: cell-based, human; details: MCL1 shRNA 2 days, then drug 2 days
Procedure: ON-TARGETplus SMARTpools for mouse Bax and Bak and non-targeting negative control siRNAs were obtained from Dhamarcon. Transfection was performed using Lipofectamine RNAiMAX (Invitrogen). Lentiviral vector for scrambled and human MCL1 shRNA and lentivirus infection were described previously. Immunoblotting was performed using a published procedure. For immunoprecipitation assays, cells lysed with CHAPS buffer (150 mM NaCl, 10 mM HEPES [pH 7.4], 0.5% Chaps) or Triton buffer (150 mM NaCl, 10 mM HEPES [pH 7.4], 0.5% Triton X-100) supplemented with Complete protease inhibitors (Roche). Immunoprecipitation and immunoblot assays were performed with the indicated antibodies. Active Bax was detected by immunoprecipitation with the Bax 6A7 antibody, which recognizes only the conformationally changed Bax protein [27].
Figure 12 Effects of MCL1 knockdown on BM-1197-induced apoptosis. (A) Cells were transduced with lentiviral particles containing scrambled (SCR) or MCL1-specific shRNAs for 2 days, then treated with BM-1197 for 2 days. The growth-inhibitory activity of BM-1197 was assessed by WST assay. Data are representative of three independent experiments. (B) Cells were transduced with lentiviral particles containing scrambled (SCR) or MCL1-specific shRNAs for 2 days then treated with BM-1197 (100 nM) for 20 h before harvested for immunoblotting.

[15] = IV daily 10 mg/kg, 5 days per week for 2 weeks, 8 mice

T1 sequence (Q64373 whole entry): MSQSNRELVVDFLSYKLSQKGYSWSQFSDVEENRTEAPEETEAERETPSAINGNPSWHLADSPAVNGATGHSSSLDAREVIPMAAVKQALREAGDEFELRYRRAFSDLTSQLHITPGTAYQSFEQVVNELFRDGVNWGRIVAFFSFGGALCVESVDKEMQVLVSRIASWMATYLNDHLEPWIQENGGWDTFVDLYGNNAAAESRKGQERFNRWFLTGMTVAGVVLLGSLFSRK
T2 sequence (P10417 whole entry): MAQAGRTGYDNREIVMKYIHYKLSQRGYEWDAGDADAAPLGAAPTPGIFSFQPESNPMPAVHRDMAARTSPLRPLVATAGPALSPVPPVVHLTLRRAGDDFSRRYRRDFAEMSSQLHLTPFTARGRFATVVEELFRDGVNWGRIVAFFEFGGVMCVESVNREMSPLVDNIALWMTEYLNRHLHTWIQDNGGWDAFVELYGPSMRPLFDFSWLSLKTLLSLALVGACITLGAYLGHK

Cc1c(S(C)(=O)=O)c(-c2cc(F)cc(N3CCN(c4ccc(NS(=O)(=O)c5ccc(N[C@H](CCN6CCC(O)CC6)CSc6ccccc6)c(S(=O)(=O)C(F)(F)F)c5)cc4)CC3)c2)c(-c2ccc(Cl)cc2)n1C(C)C [BM-1197]
IC50 [1]: > 2000 nM
times more potent than ABT-263 in inhibition of cell growth ([2]; MCL1−/− cells): ~8 times
IC50 ([2]; Mus musculus, MEF, 72 h, 3 days, WST assay): 5 ± 3 nM
thermal stability of Bcl-xL protein ([3]; 1 µM, 1 h): enhanced
lowest concentration that efficiently stabilized BCL-xL protein ([3]; 1 h treatment): 16 nM
thermal stability of Bcl-2 protein [4]: enhanced
IC50 ([5]; NCI-H146, 96 h, read-out: IC50 (1% FBS), H146, 4 days, WST assay, 1% FBS): 1.9 nM
IC50 ([5]; NCI-H146, 96 h, read-out: IC50 (1% FBS+3% HSA), H146, 4 days, WST assay, 1% FBS+3% HSA): 1.9 nM
IC50 ([5]; NCI-H146, 96 h, read-out: IC50 (10% FBS), H146, 4 days, WST assay, 10% FBS): 2.6 nM
IC50 ([5]; NCI-H146, 96 h, read-out: IC50 (50% FBS), H146, 4 days, WST assay, 50% FBS): 4.8 nM
IC50 ([5]; NCI-H146, 96-h incubation, means ± SD (n = 3–6), read-out: IC50 cell growth, H146): 3 ± 2 nM
IC50 [6]: 6 ± 5 nM
IC50 [7]: 306 ± 116 nM
IC50 [8]: 538 ± 254 nM
IC50 [9]: 698 ± 354 nM
IC50 [10]: > 2000 nM
IC50 [11]: > 2000 nM
fold more potent than ABT-263 ([12]; 4 cell lines most sensitive to BM-1197): 5-26 fold
IC50 ([12]; 2 of 12 SCLC cell lines, read-out: IC50 values in the 2 cell lines with weak activity): > 2000 nM
IC50 ([12]; 3 of 12 SCLC cell lines, read-out: IC50 values in the 3 cell lines with moderate activity): ~600 nM
IC50 ([12]; 7 of 12 SCLC cell lines, read-out: IC50 values in the 7 cell lines with potent activity): 3 to 82 nM
mice tumor free 50 days after the end of the weekly treatment ([13]; 15 mg/kg weekly IV): 5 of 8
mice with complete tumor regression after eight weekly doses ([13]; 15 mg/kg weekly IV): 7 of 8
mice with complete tumor regression after five weekly doses ([13]; 15 mg/kg weekly IV): 4 of 8
decrease of mean tumor volume after 7 doses ([13]; IV daily 10 mg/kg): 85%
decrease of mean tumor volume after two doses ([13]; IV daily 10 mg/kg): 40%
mice tumor free 60 days after the end of the treatment [13, 15]: 5 mice
mice tumor free for at least 32 days after the end of the treatment [13, 15]: 8 mice
mice with rapid and complete tumor regression [13, 15]: 8 mice
mean tumor volume after two doses ([13]; IV daily 10 mg/kg, from 114 mm^3): 69 mm^3
weight loss compared to control group ([13]; all dose-schedules in H146 model, no other signs of toxicity): no statistically significant weight loss
reduction of mean tumor volume on day 7 ([13]; single 10 mg/kg dosing, weekly IV schedule): 32%
tumor regression on day 7 ([13]; single 15 mg/kg dosing, weekly IV schedule): 66%
apoptosis biomarkers in H146 tumors ([13]; single dose 10 mg/kg IV, as early as 3 h, persisting at least 24 hr): rapid and robust caspase-3 activation and PARP cleavage
insensitive cell lines in which depletion of MCL1 dramatically enhanced inhibitory activity [14]: 4 of 5
